# According to patent US9078915B2, “Prostate carcinogenesis predictor” (University of South Florida, priority 2007, dated 2015):
# Columns and labels:
# LNCaP cells = test: Cell viability, trypan blue exclusion assay, LNCaP; type: cell-based, human
# Method: (§1) The siRNAs complexes were made according to the following procedures: 60 μl of siRNAs (10 μM stock solution) were combined with 60 μl of tranfection reagent and incubated at room temperature for 30 minutes to make the siRNA complex. The siRNA complex was then added to twenty four hours post plated cells giving a final concentration of 50 nM of siRNA complex in complete media. The cells were incubated with either siRNA-A, or PKC-ι, PKC-ζ, and PKC-δ siRNA (50 nM for RWPE-1, 100 nM for LNCaP and 150 nM for DU-145 respectively). Following treatments, the cells were washed with phosphate buffered saline (PBS), trypsinized and resuspended in 2-3 ml of PBS.
# (§2) Cell viability was quantified using trypan blue exclusion assay and the numbers of unstained cells were counted as mentioned above. Three independent experiments were carried out for each treatment with controls. Cell viability was determined relative to vehicle control using the mean and SD for each time point. Statistical determination by Student's T test using Minitab program (Minitab Inc. State College, Pa.).
# (§3) Subconfluent RWPE-1 (A), LNCaP (B) and DU-145 (C) cells (2.5×10^5) were treated with PKC-ι siRNA (50 nM for RWPE-1, 100 nM for LNCaP and 150 nM for DU-145) complex from 24-72 h as described in “Materials and Methods.” At the indicated time, the viable cells were counted using trypan blue exclusion assay and a hematocyometry. Three independent experiments were performed and the mean of the viable cells and SD were plotted. After titrating PKC-ι siRNA concentrations from 50-100 nM, we used an optimal concentration of PKC-ι siRNA (50 nM) and control siRNA to suppress PKC-ι expression. […]
# (§4) Cell lysates (50 μg) of an exponentially growing DU-145 cells were immunoprecipitated with either rabbit polyclonal PKC-ι antibody and/or IKKα/β rabbit polyclonal antibody. […] After incubation for 24-72 hours with ICA-1 (0.1 μM-60 μM), both the control cells and ICA-1 treated cells were trypsinized and viable cells were counted using trypan blue exclusion assay and a hematocytometry. […]
# DU-145 cells = test: Cell viability, trypan blue exclusion assay, DU-145; type: cell-based, human
# Method: as §1, §2, §3, §4
# PKC-ι = biological target: T1, PKC-ι (Homo sapiens, UniProt P41743); test: Kinase assay: phosphorylation of IKKα/β by immunoprecipitated PKC-ι from DU-145 cells; type: biochemical; conditions: ICA-1 100 nM, co-immunoprecipitated PKC-ι and IKKα/β
# T1 construct: Cell lysates (50 μg) of an exponentially growing DU-145 cells were immunoprecipitated with either rabbit polyclonal PKC-ι antibody; endogenous in cells; host or cells: DU-145 (whole cell lysate, immunoprecipitate on anti-rabbit IgG-agarose beads)
# T1 sequence (P41743 1-596): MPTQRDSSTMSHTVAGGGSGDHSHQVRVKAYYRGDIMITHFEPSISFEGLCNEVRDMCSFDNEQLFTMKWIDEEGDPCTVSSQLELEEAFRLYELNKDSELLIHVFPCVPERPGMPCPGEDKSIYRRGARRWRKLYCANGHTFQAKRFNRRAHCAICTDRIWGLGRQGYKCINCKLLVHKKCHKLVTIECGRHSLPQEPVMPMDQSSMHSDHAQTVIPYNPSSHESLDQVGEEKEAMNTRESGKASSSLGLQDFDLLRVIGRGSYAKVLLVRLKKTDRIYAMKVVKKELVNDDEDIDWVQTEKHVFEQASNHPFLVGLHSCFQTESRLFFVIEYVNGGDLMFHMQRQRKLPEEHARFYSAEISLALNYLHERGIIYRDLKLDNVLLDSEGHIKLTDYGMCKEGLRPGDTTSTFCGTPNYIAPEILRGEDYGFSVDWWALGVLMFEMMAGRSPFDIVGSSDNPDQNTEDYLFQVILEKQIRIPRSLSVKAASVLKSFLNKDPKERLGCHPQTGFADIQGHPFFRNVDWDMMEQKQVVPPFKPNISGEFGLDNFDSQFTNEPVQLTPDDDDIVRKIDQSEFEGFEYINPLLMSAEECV
# Method: DU-145 cells (3.75×10^5) were grown as a monolayer in T75 flasks overnight. Whole cell lysates of (100 μg) were immunoprecipitated as follows: cell lystaes (50 μg) were pre-cleared for 30 min at 4° C. with anti-rabbit IgG-agarose beads (1:1 v/v, 10 μl) (catalog number A8914; Sigma Aldrich) and incubated with 5 μg of PKC-ι rabbit polyclonal antibody and/or IKKα/β rabbit polyclonal antibody (5 μg) overnight at 4° C. and then a further 1 h with anti-rabbit IgG-agarose beads (1:1 v/v, 50 μl). The immunoprecipitated samples were incubated with kinase buffer (50 μl of 3.03 mg/10 ml ATP, 30 mM of Tris p.H 7.4, 50 μl of 5 μg phosphotidylserine) at 30° C. in a water bath for 5 minutes. The reaction was terminated by placing the samples in ice. The PKC-ι inhibitor 1H-imidazole-4-carboxamide, 5-amino-1-[2,3-dihydroxy-4-[(phosphonooxy)methyl]cyclopentyl]-, [1R-(1a, 2b, 3b, 4a)] (ICA-1; 100 nM) was synthesized by Southern Research Institute (Birmingham, Ala.). […]
# as §4
smiles,measurement,setting,value
"NC(=O)c1ncn(C2CC(COP(=O)(O)O)C(O)C2O)c1N (stereo not drawn) [ICA-1, 1H-imidazole-4-carboxamide, 5-amino-1-[2,3-dihydroxy-4-[(phosphonooxy)methyl]cyclopentyl]-, [1R-(1a, 2b, 3b, 4a)]]",inhibition of cell proliferation,"LNCaP cells; ICA-1 0.1 μM-60 μM, 24-72 hours",does not significantly (p>0.05 for both cell lines) inhibit
same,cell numbers at low concentration,LNCaP cells; ICA-1 0.1-0.5 μM,increase in cell numbers
same,cell growth at high concentration,LNCaP cells; ICA-1 10-60 μM,inhibition of cell growth
same,inhibition of cell proliferation,"DU-145 cells; DU-145, ICA-1 0.1 μM-60 μM, 24-72 hours",does not significantly (p>0.05 for both cell lines) inhibit
same,cell numbers at low concentration,"DU-145 cells; DU-145, ICA-1 0.1-0.5 μM",increase in cell numbers
same,cell growth at high concentration,"DU-145 cells; DU-145, ICA-1 10-60 μM",inhibition of cell growth
same,phosphorylation of IKKα/β (Ser176/180) by PKC-ι,PKC-ι,inhibited
